Our source for the IC50 values is patent US8138168B1 (Takeda Pharmaceutical Company Limited, priority 2007, dated 2012).

Molecules are shown by their SMILES. A value given as a limit tells only on which side of the number the result lay.

The experiment has as its target T1, Recombinant human renin (Homo sapiens, UniProt P00797).
T1 construct: isolate the active form (residues 67-406); made in house; host or cells: FreeStyle 293-F cells (transient expression of pcDNA3.1(+)/hREN)
T1 sequence (P00797 67-406): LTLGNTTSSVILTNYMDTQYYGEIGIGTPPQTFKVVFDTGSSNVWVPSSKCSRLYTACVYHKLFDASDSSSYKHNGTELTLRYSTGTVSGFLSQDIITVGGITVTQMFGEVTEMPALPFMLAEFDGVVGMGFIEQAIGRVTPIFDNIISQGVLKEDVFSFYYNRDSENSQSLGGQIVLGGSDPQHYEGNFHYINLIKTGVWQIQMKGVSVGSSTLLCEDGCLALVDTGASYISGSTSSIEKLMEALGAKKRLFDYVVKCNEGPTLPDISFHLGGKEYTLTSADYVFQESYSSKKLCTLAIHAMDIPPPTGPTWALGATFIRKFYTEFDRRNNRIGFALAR
Briefly: In vitro enzymatic activity assay of renin inhibitors (fluorogenic peptide substrate). The format is biochemical. Particulars: read-out: IC50 of Exemplified Compounds Against Renin. An outline of the steps: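 Enzyme: recombinant human renin, 3 nM final, 10 min compound pre-incubation at 37 °C; buffer 50 mM Hepes pH 7.4 with 0.1 mg/mL BSA or extra 2% BSA; 5% DMSO.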
Consider `COCCCn1c([C@@H]2CCCN(C(=O)C[C@H](N)Cc3ccc(-c4cccnc4OC)cc3)C2)nc2ccccc21` [Compound 163, (R)-3-amino-1-((R)-3-(1-(3-methoxypropyl)-1H-benzo[d]imidazol-2-yl)piperidin-1-yl)-4-(4-(2-methoxypyridin-3-yl)phenyl)butan-1-one], for which the IC50 – broadly, the concentration needed to halve the response being measured – was < 0.1 µM.
As for `COCCCn1c([C@@H]2CCCN(C(=O)C[C@H](N)Cc3ccc(-c4ccc(C#N)cc4)cc3)C2)nc2ccccc21` [Compound 164, 4′-((R)-2-amino-4-((R)-3-(1-(3-methoxypropyl)-1H-benzo[d]imidazol-2-yl)piperidin-1-yl)-4-oxobutyl)biphenyl-4-carbonitrile], the IC50 is < 0.1 µM.
Next, `COCCCn1c([C@@H]2CCCN(C(=O)C[C@H](N)Cc3ccc(-c4ccc(S(C)(=O)=O)cc4)cc3)C2)nc2ccccc21` [Compound 165, (R)-3-amino-1((R)-3-(1-(3-methoxypropyl)-1H-benzo[d]imidazol-2-yl)piperidin-1-yl)-4-(4′-(methylsulfonyl)biphenyl-4-yl)butan-1-one]: < 0.1 µM; `COCCCn1c([C@@H]2CCCN(C(=O)C[C@H](N)Cc3ccc(-c4c(C)noc4C)cc3)C2)nc2ccccc21` [Compound 166, (R)-3-amino-4-(4-(3,5-dimethylisoxazol-4-yl)phenyl)-1-((R)-3-(1-(3-methoxypropyl)-1H-benzo[d]imidazol-2-yl)piperidin-1-yl)butan-1-one]: 0.1 to 1 µM; `COCCCn1c([C@@H]2CCCN(C(=O)C[C@H](N)Cc3ccc(-c4cccnc4Cl)cc3)C2)nc2ccccc21` [Compound 167, (R)-3-amino-4-(4-(2-chloropyridin-3-yl)phenyl)-1-((R)-3-(1-(3-methoxypropyl)-1H-benzo[d]imidazol-2-yl)piperidin-1-yl)butan-1-one]: < 0.1 µM.
As for `COCCCn1c([C@@H]2CCCN(C(=O)C[C@H](N)Cc3ccc(-c4ccc(C(N)=O)cc4)cc3)C2)nc2ccccc21` [Compound 168, 4′-((R)-2-Amino-4-((R)-3-(1-(3-methoxypropyl)-1H-benzo[d]imidazol-2-yl)piperidin-1-yl)-4-oxobutyl)biphenyl-4-carboxamide], the figure is < 0.1 µM; as for `COCCCn1c([C@@H]2CCCN(C(=O)C[C@H](N)Cc3ccc(-c4c[nH]c(=O)[nH]c4=O)cc3)C2)nc2ccccc21` [Compound 169, 5-(4-((R)-2-amino-4-((R)-3-(1-(3-methoxypropyl)-1H-benzo[d]imidazol-2-yl)piperidin-1-yl)-4-oxobutyl)phenyl)pyrimidine-2,4(1H,3H)-dione], < 0.1 µM; as for `COCCCn1c([C@@H]2CCCN(C(=O)C[C@H](N)Cc3ccc(-c4ccc(N)cc4)cc3)C2)nc2ccccc21` [Compound 170, (R)-3-Amino-4-(4′-aminobiphenyl-4-yl)-1-((R)-3-(1-(3-methoxypropyl)-1H-benzo[d]imidazol-2-yl)piperidin-1-yl)butan-1-one], < 0.1 µM.
With `COCCCn1c([C@@H]2CCCN(C(=O)C[C@H](N)Cc3ccc(-c4ccc(NC(=O)NC5CC5)cc4)cc3)C2)nc2ccccc21` [Compound 171, 1-(4′-((R)-2-Amino-4-((R)-3-(1-(3-methoxypropyl)-1H-benzo[d]imidazol-2-yl)piperidin-1-yl)-4-oxobutyl)biphenyl-4-yl)-3-cyclopropylurea], the IC50 is < 0.1 µM.
As for `COCCCn1c([C@@H]2CCCN(C(=O)C[C@H](N)Cc3ccc(-c4ccc(NC(N)=O)cc4)cc3)C2)nc2ccccc21` [Compound 172, 1-(4′-((R)-2-amino-4-((R)-3-(1-(3-methoxypropyl)-1H-benzo[d]imidazol-2-yl)piperidin-1-yl)-4-oxobutyl)biphenyl-4-yl)urea], the figure is < 0.1 µM.
Next, `CCNC(=O)Nc1ccc(-c2ccc(C[C@@H](N)CC(=O)N3CCC[C@@H](c4nc5ccccc5n4CCCOC)C3)cc2)cc1` [Compound 173, 1-(4′-((R)-2-amino-4-((R)-3-(1-(3-methoxypropyl)-1H-benzo[d]imidazol-2-yl)piperidin-1-yl)-4-oxobutyl)biphenyl-4-yl)-3-ethylurea]: < 0.1 µM.
